Test results published in ChEMBL document CHEMBL1201862, “PubChem BioAssay data set” (2004).
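Values below derive from 48-hour exposures of cells grown in 96-well plates, with endpoints linearly interpolated between the two concentrations bracketing the appropriate inhibition level. GI50: concentration for 50% inhibition of growth.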 The source made the active and inactive calls. No stated cut-off is given here; in the data, active = GI50 up to about 1.1 µM and inactive = higher.

How the values were obtained:
Assay in all cases: NCI-60 cell line screen, 48 h
HCT-15 = tested on: HCT-15
UO-31 = tested on: UO-31
HOP-62 = tested on: HOP-62
M14 = tested on: M14
KM12 = tested on: KM12
SNB-19 = tested on: SNB-19
OVCAR-3 = tested on: OVCAR-3
DU-145 = tested on: DU-145
SF-268 = tested on: SF-268
SK-OV-3 = tested on: SK-OV-3
SR = tested on: SR
RPMI-8226 = tested on: RPMI-8226
BT-549 = tested on: BT-549
OVCAR-4 = tested on: OVCAR-4
MCF7 = tested on: MCF7
EKVX = tested on: EKVX
A549 = tested on: A549
OVCAR-8 = tested on: OVCAR-8
RXF 393 = tested on: RXF 393
HCC 2998 = tested on: HCC 2998

SMILES | GI50 (HCT-15) | GI50 (UO-31) | GI50 (HOP-62) | GI50 (M14) | GI50 (KM12) | GI50 (SNB-19) | GI50 (OVCAR-3) | GI50 (DU-145) | GI50 (SF-268) | GI50 (SK-OV-3) | GI50 (SR) | GI50 (RPMI-8226) | GI50 (BT-549) | GI50 (OVCAR-4) | GI50 (MCF7) | GI50 (EKVX) | GI50 (A549) | GI50 (OVCAR-8) | GI50 (RXF 393) | GI50 (HCC 2998)
CN(C(=O)Cc1cc(Cl)c(Cl)cc1N=C=S)[C@H]1CCCC[C@@H]1N1CCCC1 | 13.6 µM | 15.5 µM (inactive) | 14.2 µM (inactive) | 15.5 µM (inactive) | 14.8 µM (inactive) | 13.9 µM (inactive) | 15.6 µM (inactive) | 14.7 µM (inactive) | 15.8 µM (inactive) | 18 µM (inactive) | 1.64 µM (inactive) | 7.96 µM (inactive) | 15.1 µM (inactive) | 13.3 µM (inactive) | 13.3 µM (inactive) | 17.3 µM (inactive) | 15.4 µM (inactive) | 14 µM (inactive) | 4.45 µM (inactive) | –
C/C=C(\C)c1cc(=O)c2c(C)cc3c(c2o1)C(=O)c1c(O)c(C2CC(C)(N(C)C)C(OC(C)=O)C(C)O2)cc(C2CC(N(C)C)C(O)C(C)O2)c1C3=O (stereo unspecified) | 1.27 µM | 0.948 µM (active) | 0.891 µM (active) | 0.748 µM (active) | 1.12 µM (active) | 1.52 µM (inactive) | 2.13 µM (inactive) | 0.258 µM (active) | 0.655 µM (active) | 1.95 µM (inactive) | – | 1.08 µM (active) | 1.07 µM (active) | 1.48 µM (inactive) | 0.157 µM (active) | 1.12 µM (active) | 0.41 µM (active) | 0.542 µM (active) | 0.505 µM (active) | 0.0589 µM (active)
O=c1c(-c2ccccc2)c(SCCN2CCCC2)n(-c2ccccc2)c(=S)n1-c1ccccc1 | > 100 µM | – | > 100 µM (inactive) | > 100 µM (inactive) | > 100 µM (inactive) | > 100 µM (inactive) | – | > 100 µM (inactive) | > 100 µM (inactive) | > 100 µM (inactive) | – | > 100 µM (inactive) | > 100 µM (inactive) | > 100 µM (inactive) | > 100 µM (inactive) | > 100 µM (inactive) | > 100 µM (inactive) | > 100 µM (inactive) | > 100 µM (inactive) | > 100 µM (inactive)
CCCCCCCCCCCCCCCCCCNc1nc(=O)n(C2CC(O)C(COP(=O)(O)OCC(COP(=O)(O)OC3C(CO)OC(n4ccc(N)nc4=O)C3O)OCCCCCCCCCCCCCCCCCC)O2)cc1F (stereo unspecified) | 34 µM | 28.8 µM (inactive) | 16.5 µM (inactive) | 31.7 µM (inactive) | > 100 µM (inactive) | 14.9 µM (inactive) | > 100 µM (inactive) | 34.8 µM (inactive) | 91.6 µM (inactive) | 99.3 µM (inactive) | – | 11.8 µM (inactive) | 56.4 µM (inactive) | 87.9 µM (inactive) | 8.71 µM (inactive) | > 100 µM (inactive) | 14.5 µM (inactive) | 18.6 µM (inactive) | 14.5 µM (inactive) | 14.1 µM (inactive)
COC(=O)C1CCC(=O)N1C(c1ccc2c(c1)OCO2)c1ccc2c(c1)OCO2 (stereo unspecified) | > 100 µM | 51.9 µM (inactive) | > 100 µM (inactive) | > 100 µM (inactive) | > 100 µM (inactive) | > 100 µM (inactive) | > 100 µM (inactive) | > 100 µM (inactive) | > 100 µM (inactive) | > 100 µM (inactive) | > 100 µM (inactive) | > 100 µM (inactive) | > 100 µM (inactive) | > 100 µM (inactive) | > 100 µM (inactive) | > 100 µM (inactive) | > 100 µM (inactive) | > 100 µM (inactive) | – | > 100 µM (inactive)
CC(=O)O[C@H]1CC[C@@]2(C)C(=CC[C@H]3[C@@H]4C/C(=C\c5ccc(N(C)C)cc5)[C@H](OC(C)=O)[C@@]4(C)CC[C@@H]32)C1 | 6.27 µM | 11.3 µM (inactive) | 14.1 µM (inactive) | 14.2 µM (inactive) | 11.9 µM (inactive) | 13 µM (inactive) | 8.93 µM (inactive) | 23.8 µM (inactive) | 12.7 µM (inactive) | 43.4 µM (inactive) | 4.1 µM (inactive) | 4.89 µM (inactive) | 12 µM (inactive) | 14.7 µM (inactive) | 7.62 µM (inactive) | 8.69 µM (inactive) | 5.92 µM (inactive) | 11.3 µM (inactive) | 9.91 µM (inactive) | –
NC(=O)C1=C(O)C[C@@H]2CC3Cc4cccc(O)c4C(=O)C3=C(O)[C@]2(O)C1=O (stereo partly specified) | 0.479 µM | 2.9 µM (inactive) | 3.31 µM (inactive) | 1.84 µM (inactive) | 9.55 µM (inactive) | 1.88 µM (inactive) | 2.77 µM (inactive) | 3.16 µM (inactive) | 2.02 µM (inactive) | 3.69 µM (inactive) | – | 0.755 µM (active) | 1.87 µM (inactive) | 10.7 µM (inactive) | 1.79 µM (inactive) | 0.861 µM (active) | 0.592 µM (active) | 2.92 µM (inactive) | 1.51 µM (inactive) | 3.1 µM (inactive)
